{
  "source": "patent US20240271127A1",
  "about": "“METHODS OF ENHANCING AND EXPEDITING EXPRESSION OF ANTIBODIES” (Aridis Pharmaceuticals, Inc., priority 2019, published 2024)",
  "tested_on": "UPR pathway in CHO-K1 cell line expressing Ire1-1642G and Fv2E-PERK",
  "experiment": "Drug-inducible UPR pathway activation, RT-qPCR of UPR gene mRNA transcripts",
  "format": "cell-based, Chinese hamster",
  "conditions": "CHO-K1 transfected with Ire1-1642G and Fv2E-PERK in combination; 1NM-PP1 0, 10 or 50 μM added 24 hours post-transfection",
  "method": "In FIG. 12A drug-inducible activation of UPR pathway promotes ER expansion signaling pathways in a dosage-dependent manner. […] At 24 hours post-transfection, cells were treated with varying concentrations of 1NM-PP1 (0, 10, or 50 μM). mRNA transcripts of UPR genes were measured by RT-qPCR of unspliced Xbp1 (Xbp1u), spliced Xbp1 (Xbp1s), Chop, Gadd34, and Atf4. […]\nReverse transcription real-time quantitative polymerase chain reaction (RT-qPCR). […] Quantification was by standard ddCt method.\n1NM-PP1 drug induction in CHO cells: Stable CHO cell lines expressing Ire1a 1642G or Fv2E-PERK alone or in combination were induced with 10 or 50 µM of 1NM-PP1. Gene expression measured by RT-qPCR was performed at 24h post-drug induction.\nA drug inducible UPR activation pathway was constructed in a CHO-K1 cell line transfected with plasmid containing constitutive promoter expressing Ire1-1642G or Fv2E-PERK alone or in combination. At 24 hours post-transfection, cells were treated with varying concentrations of 1NM-PP1 (0, 10 or 50 μM). mRNA transcripts of UPR genes were measured by RT-qPCR of unspliced Xbp1 (Xbp1u), spliced Xbp1 (Xbp1s), Chop, Gadd34, and Atf4.",
  "data": [
    {"smiles": "CC(C)(C)n1nc(Cc2cccc3ccccc23)c2c(N)ncnc21", "note": "[1NM-PP1]", "values": [
      {"measurement": "mRNA transcripts of UPR genes Xbp1u, CHOP, Gadd34 and Atf4 (RT-qPCR)", "result": "increased at higher concentrations"}
    ]}
  ]
}
